Source: PMC4088952 (Psychoneuroendocrinology, 2014)
Several values for one entry are separate records, joined by “and”; a condition that tells them apart may be missing. Equal entries are not always repeated.

Key:
[1] = system: plasma OT levels; test: Plasma oxytocin levels after oral MDMA; assay type: in vivo, humans
[2] = system: subjective drug effects; test: Drug Effects Questionnaire; assay type: in vivo, humans; conditions: oral MDMA; all subjective ratings (DEQ and VAS)
[3] = system: heart rate and blood pressure; test: Cardiovascular measures; assay type: in vivo, humans; conditions: intranasal oxytocin 20 IU or 40 IU versus placebo

Structure (SMILES) | plasma OT levels compared to placebo ([1]; oral MDMA 0.75 mg/kg, N=14, t[13] = 2.96, p = 0.07) | duration of plasma OT elevation ([1]; oral MDMA 1.5 mg/kg) [h] | time of mean peak plasma OT concentration after capsule ingestion ([1]; oral MDMA 1.5 mg/kg, N=14) | time to significantly elevated plasma OT following capsule administration ([1]; oral MDMA 1.5 mg/kg, first time point) [min] | time of peak effects on all subjective ratings after capsule ingestion [2] [min] | plasma OT levels compared to placebo (intranasal oxytocin 20 IU, N=6) | duration of plasma OT elevation (intranasal oxytocin 40 IU) [min] | time of peak plasma OT after nasal spray administration (intranasal oxytocin 40 IU, N=8) [min] | cardiovascular and subjective effects [3]
CNC(C)Cc1ccc2c(c1)OCO2 (racemic) [MDMA, ±3,4-methylenedioxymethamphetamine] | slightly increased compared to placebo but this difference did not reach significance | 3 | 90 to 120 min and 120 min | ≤ 60 | 60 to 120 | – | – | – | –
CC[C@H](C)[C@@H]1NC(=O)[C@H](Cc2ccc(O)cc2)NC(=O)[C@@H](N)CSSC[C@@H](C(=O)N2CCC[C@H]2C(=O)N[C@@H](CC(C)C)C(=O)NCC(N)=O)NC(=O)[C@H](CC(N)=O)NC(=O)[C@H](CCC(N)=O)NC1=O [Oxytocin, oxytocin] | – | – | – | – | – | did not observe an increase in plasma OT | 30 | 30 to 60 | no cardiovascular or subjective effects
